Test results taken from PubChem BioAssay (NCI).
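Dose response: 5 concentrations. Exposure: 48 h. Format: 96-well plates. Endpoint: linear interpolation; highest concentration if not reached. GI50 marks 50% less growth. TGI marks complete inhibition of growth.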

What was measured:
Experiment in all cases: NCI-60 cell line screen, 48 h
786-0 renal = test system: 786-0 renal
A498 renal = test system: A498 renal
A549 NSCLC = test system: A549 NSCLC
ACHN renal = test system: ACHN renal
BT-549 breast = test system: BT-549 breast
CAKI-1 renal = test system: CAKI-1 renal
CCRF-CEM leukemia = test system: CCRF-CEM leukemia
COLO 205 colon = test system: COLO 205 colon
DU-145 prostate = test system: DU-145 prostate
EKVX NSCLC = test system: EKVX NSCLC
HCC-2998 colon = test system: HCC-2998 colon
HCT-116 colon = test system: HCT-116 colon
HCT-15 colon = test system: HCT-15 colon
HL-60(TB) leukemia = test system: HL-60(TB) leukemia
HOP-62 NSCLC = test system: HOP-62 NSCLC
HOP-92 NSCLC = test system: HOP-92 NSCLC
HS 578T breast = test system: HS 578T breast
HT29 colon = test system: HT29 colon
IGROV1 ovarian = test system: IGROV1 ovarian
K-562 leukemia = test system: K-562 leukemia
KM12 colon = test system: KM12 colon
LOX IMVI melanoma = test system: LOX IMVI melanoma
M14 melanoma = test system: M14 melanoma
MALME-3M melanoma = test system: MALME-3M melanoma
MDA-MB-231 breast = test system: MDA-MB-231 breast
MDA-MB-435 = test system: MDA-MB-435
MOLT-4 leukemia = test system: MOLT-4 leukemia
NCI-H226 lung = test system: NCI-H226 lung
NCI-H23 lung = test system: NCI-H23 lung
NCI-H460 lung = test system: NCI-H460 lung
NCI-H522 lung = test system: NCI-H522 lung
NCI/ADR-RES ovarian = test system: NCI/ADR-RES ovarian
OVCAR-3 ovarian = test system: OVCAR-3 ovarian
OVCAR-4 ovarian = test system: OVCAR-4 ovarian
OVCAR-5 ovarian = test system: OVCAR-5 ovarian
OVCAR-8 ovarian = test system: OVCAR-8 ovarian
PC-3 prostate = test system: PC-3 prostate
RPMI-8226 leukemia = test system: RPMI-8226 leukemia
RXF 393 renal = test system: RXF 393 renal
SF-268 CNS = test system: SF-268 CNS
SF-295 CNS = test system: SF-295 CNS
SF-539 CNS = test system: SF-539 CNS
SK-MEL-2 melanoma = test system: SK-MEL-2 melanoma
SK-MEL-28 melanoma = test system: SK-MEL-28 melanoma
SK-MEL-5 melanoma = test system: SK-MEL-5 melanoma
SK-OV-3 ovarian = test system: SK-OV-3 ovarian
SN12C renal = test system: SN12C renal
SNB-19 CNS = test system: SNB-19 CNS
SNB-75 CNS = test system: SNB-75 CNS
SW-620 colon = test system: SW-620 colon
TK-10 renal = test system: TK-10 renal
U251 CNS = test system: U251 CNS
UACC-257 melanoma = test system: UACC-257 melanoma
UACC-62 melanoma = test system: UACC-62 melanoma
UO-31 renal = test system: UO-31 renal

C=C1CC2(OC1=O)C(=O)N(C)c1ccc(I)cc12 (centres undefined)
GI50 (786-0 renal): 1650 nM | TGI (786-0 renal): 3.18 µM | GI50 (A498 renal): 2500 nM | TGI (A498 renal): 10.2 µM | GI50 (A549 NSCLC): 6.23 µM | TGI (A549 NSCLC): 22.5 µM | GI50 (ACHN renal): 624 nM | TGI (ACHN renal): 1830 nM | GI50 (BT-549 breast): 1560 nM | TGI (BT-549 breast): 4.19 µM | GI50 (CAKI-1 renal): 836 nM | TGI (CAKI-1 renal): 2790 nM | GI50 (CCRF-CEM leukemia): 1060 nM | TGI (CCRF-CEM leukemia): > 100 µM | GI50 (COLO 205 colon): 841 nM | TGI (COLO 205 colon): 2170 nM | GI50 (DU-145 prostate): 941 nM | TGI (DU-145 prostate): 2270 nM | GI50 (EKVX NSCLC): 1660 nM | TGI (EKVX NSCLC): 8.15 µM | GI50 (HCC-2998 colon): 2690 nM | TGI (HCC-2998 colon): 7.04 µM | GI50 (HCT-116 colon): 348 nM | TGI (HCT-116 colon): 1420 nM | GI50 (HCT-15 colon): 583 nM | TGI (HCT-15 colon): 1970 nM | GI50 (HL-60(TB) leukemia): 337 nM | TGI (HL-60(TB) leukemia): 1540 nM | GI50 (HOP-62 NSCLC): 12.9 µM | TGI (HOP-62 NSCLC): 27.7 µM | GI50 (HOP-92 NSCLC): 659 nM | TGI (HOP-92 NSCLC): 2690 nM | GI50 (HS 578T breast): 3.26 µM | TGI (HS 578T breast): > 22.7 µM | GI50 (HT29 colon): 1030 nM | GI50 (IGROV1 ovarian): 1230 nM | TGI (IGROV1 ovarian): 4.56 µM | GI50 (K-562 leukemia): 1310 nM | TGI (K-562 leukemia): > 23.7 µM | GI50 (KM12 colon): 3.37 µM | TGI (KM12 colon): 8.55 µM | GI50 (LOX IMVI melanoma): 1140 nM | TGI (LOX IMVI melanoma): 2520 nM | GI50 (M14 melanoma): 1490 nM | TGI (M14 melanoma): 3.03 µM | GI50 (MALME-3M melanoma): 272 nM | TGI (MALME-3M melanoma): 1930 nM | GI50 (MDA-MB-231 breast): 1810 nM | TGI (MDA-MB-231 breast): 5.31 µM | GI50 (MDA-MB-435): 1570 nM | TGI (MDA-MB-435): 5.49 µM | GI50 (MOLT-4 leukemia): 548 nM | TGI (MOLT-4 leukemia): 3.45 µM | GI50 (NCI-H226 lung): 2310 nM | TGI (NCI-H226 lung): 9.9 µM | GI50 (NCI-H23 lung): 1740 nM | TGI (NCI-H23 lung): 4.58 µM | GI50 (NCI-H460 lung): 2750 nM | TGI (NCI-H460 lung): 11.1 µM | GI50 (NCI-H522 lung): 444 nM | TGI (NCI-H522 lung): 1800 nM | GI50 (NCI/ADR-RES ovarian): 1850 nM | TGI (NCI/ADR-RES ovarian): 4.68 µM | GI50 (OVCAR-3 ovarian): 422 nM | TGI (OVCAR-3 ovarian): 1430 nM | GI50 (OVCAR-4 ovarian): 1270 nM | TGI (OVCAR-4 ovarian): 5.43 µM | GI50 (OVCAR-5 ovarian): 2130 nM | TGI (OVCAR-5 ovarian): 4.84 µM | GI50 (OVCAR-8 ovarian): 1760 nM | TGI (OVCAR-8 ovarian): 4.9 µM | GI50 (PC-3 prostate): 2290 nM | TGI (PC-3 prostate): 7.86 µM | GI50 (RPMI-8226 leukemia): 558 nM | TGI (RPMI-8226 leukemia): 2530 nM | GI50 (RXF 393 renal): 481 nM | TGI (RXF 393 renal): 1180 nM | GI50 (SF-268 CNS): 2010 nM | TGI (SF-268 CNS): 5.01 µM | GI50 (SF-295 CNS): 2300 nM | TGI (SF-295 CNS): 8.16 µM | GI50 (SF-539 CNS): 1380 nM | TGI (SF-539 CNS): 2800 nM | GI50 (SK-MEL-2 melanoma): 2160 nM | TGI (SK-MEL-2 melanoma): 6.28 µM | GI50 (SK-MEL-28 melanoma): 1730 nM | TGI (SK-MEL-28 melanoma): 3.6 µM | GI50 (SK-MEL-5 melanoma): 2260 nM | TGI (SK-MEL-5 melanoma): 6.37 µM | GI50 (SK-OV-3 ovarian): 9.95 µM | TGI (SK-OV-3 ovarian): 22.5 µM | GI50 (SN12C renal): 1710 nM | TGI (SN12C renal): 4.02 µM | GI50 (SNB-19 CNS): 6.98 µM | TGI (SNB-19 CNS): 20.2 µM | GI50 (SNB-75 CNS): 3.69 µM | TGI (SNB-75 CNS): 12.7 µM | GI50 (SW-620 colon): 566 nM | TGI (SW-620 colon): 2040 nM | GI50 (TK-10 renal): 1440 nM | TGI (TK-10 renal): 3.17 µM | GI50 (U251 CNS): 1810 nM | TGI (U251 CNS): 5.21 µM | GI50 (UACC-257 melanoma): 909 nM | TGI (UACC-257 melanoma): 2490 nM | GI50 (UACC-62 melanoma): 1250 nM | TGI (UACC-62 melanoma): 2690 nM | GI50 (UO-31 renal): 622 nM | TGI (UO-31 renal): 2030 nM
